Laboratory results: ChEMBL document CHEMBL5620419, “Discovery of new Lenalidomide derivatives as potent and selective GSPT1 degraders” (Eur J Med Chem, 2023)

Target: Protein cereblon/Eukaryotic peptide chain release factor GTP-binding subunit ERF3A (Homo sapiens, UniProt P15170+Q96SW2)
Experiment: PROTAC activity at CRBN/GSPT1 in human U-937 cells assessed as degradation of GSPT1 measured after 6 hrs by Western blot analysis
Assay type: cell-based

Protein cereblon/Eukaryotic peptide chain release factor GTP-binding subunit ERF3A, sequence (Q96SW2 whole entry): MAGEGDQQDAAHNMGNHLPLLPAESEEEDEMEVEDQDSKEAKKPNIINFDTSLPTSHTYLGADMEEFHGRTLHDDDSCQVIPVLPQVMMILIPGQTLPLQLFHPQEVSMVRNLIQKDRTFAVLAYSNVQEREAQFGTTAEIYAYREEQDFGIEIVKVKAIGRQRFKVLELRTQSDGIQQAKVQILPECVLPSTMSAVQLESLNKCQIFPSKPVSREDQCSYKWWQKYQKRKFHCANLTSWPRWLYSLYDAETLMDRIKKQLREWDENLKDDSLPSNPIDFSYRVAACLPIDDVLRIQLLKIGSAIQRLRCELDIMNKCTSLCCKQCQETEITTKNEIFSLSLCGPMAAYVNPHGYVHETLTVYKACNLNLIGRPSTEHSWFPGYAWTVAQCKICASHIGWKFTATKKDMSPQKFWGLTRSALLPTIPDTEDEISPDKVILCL
Protein cereblon/Eukaryotic peptide chain release factor GTP-binding subunit ERF3A, sequence (P15170 whole entry): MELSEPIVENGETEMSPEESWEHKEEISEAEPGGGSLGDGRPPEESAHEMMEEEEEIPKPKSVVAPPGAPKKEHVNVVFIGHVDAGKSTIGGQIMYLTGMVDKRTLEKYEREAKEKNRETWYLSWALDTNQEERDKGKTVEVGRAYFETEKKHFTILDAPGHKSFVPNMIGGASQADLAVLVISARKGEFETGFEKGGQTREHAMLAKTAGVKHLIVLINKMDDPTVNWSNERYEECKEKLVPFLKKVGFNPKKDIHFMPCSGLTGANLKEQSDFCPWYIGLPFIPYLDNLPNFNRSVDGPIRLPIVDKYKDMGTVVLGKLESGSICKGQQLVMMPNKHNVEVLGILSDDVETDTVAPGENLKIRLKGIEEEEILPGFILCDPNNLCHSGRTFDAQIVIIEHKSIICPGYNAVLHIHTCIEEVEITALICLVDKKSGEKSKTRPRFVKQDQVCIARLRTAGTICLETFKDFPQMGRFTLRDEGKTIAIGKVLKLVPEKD

SMILES | EC50
Cc1cc(NC(=O)C(C)Cc2ccc3c(c2)CN(C2CCC(=O)NC2=O)C3=O)ccc1Cl (configuration not stated) | > 10000 nM
Cc1ccc(NC(=O)CCc2ccc3c(c2)C(=O)N(C2CCC(=O)NC2=O)C3=O)cc1Cl (configuration not stated) | 447 nM
